Data as given in US12559504B2, “Benzotriazole derivative” (UBE CORPORATION, priority 2019, dated 2026).

How the values were obtained:
NQO1 [1] = test: NQO1 enzyme induction test (in vitro) in Hepa1c1c7 cells; format: cell-based; conditions: Mus musculus, Hepa-1c1c7, 48 h, concentration to elevate the NQO1 activity by 1.5 times, about 48 hours, read-out: EC150
Protocol: Each NQO1 assay was carried out by modifying a known method (Anal Biochem 1998; 169: 328-, Methods Enzymol 2004; 382: 243-). Hepa1c1c7 cells (mouse hepatocyte line manufacture by DS Pharma Biomedical Co., Ltd., REF. No. 95090613) were cultured (5% CO2, 37° C.). The cells were cultured in MEMα (manufactured by FUJIFILM Wako Pure Chemical Corporation, REF. 135-15175) medium comprising 10% FBS (manufactured by GIBCO, REF. 10082) and […]/streptomycin/amphotericin B (manufactured by GIBCO, REF. 15240), and dispensed into a 96 well plate (manufactured by Costar, REF. 3610) at 2.0×10^3 cells/well. On the next day, test compound (final concentration of […]: 0.1%) dissolved into DMSO (manufactured by FUJIFILM Wako Pure Chemical Corporation, REF. 043-07216) was added to each well, and the plate was further cultured for about 48 hours.
A cell lysate manufactured by Cell signaling Technology, Inc. (REF. 9803) with the addition of a Protease Inhibitor manufactured by Roche Diagnostics K.K. (REF. 11-873580001) was used. A reaction solution (which is a solution comprising trishydrochloric acid (25 mM), albumin […], Tween-20 (0.01%), glucose-6-phosphate dehydrogenase (2 U/mL), flavin-adenine dinucleotide (5 μM), glucose-6-phosphate (1 μM), nicotinamide adenine dinucleotide phosphate (30 μM), 3-(4,5-dimethyl-2-thiazolyl)-2,5-diphenyltetrazolium bromide (MTT) (0.03%), and menadione (50 μM)), and a stop solution (which is a solution comprising dicumarol (0.3 mM) and potassium dihydrogen phosphate (5 mM), pH 7.4) were prepared. After the medium was removed, cell lysate (50 μL) was added thereto, and the resulting mixture was shaken at room temperature for 20 minutes. The reaction solution (200 μL) was added thereto, and the resulting mixture was left to stand at room temperature for 5 minutes. The stop solution (50 μL) was added thereto, and absorbance at 540 nm (reference 750 nm) was measured.
Cell number was measured by Cell Titer Glo assay (manufactured by Promega Corporation, REF. G9242) by using another plate prepared according to the same conditions as those described above, and correction of absorbance was carried out. The test result was analyzed by Excel, and the EC150 value which is the concentration to elevate the NQO1 activity by 1.5 times was calculated.

[2] = Metabolism test using human liver microsome fractions; format: in vitro ADME; conditions: human liver microsomes, test compound 10 μmol/L, NADPH and UDP-glucuronic acid, 37° C.
Outline: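 Human or monkey liver microsomes (1 mg protein) with NADPH-regenerating system plus UDP-glucuronic acid/UGT mix, 37 °C; compound at 10 μmol/L final. Samples at 0–30 min quenched in acetonitrile, UV-HPLC; elimination rate (pmol/min/mg-P) from linear slope of residual amount over time.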

[3] = target: T1, GST fusion human Keap1 (amino acid residue: 325-624) protein (Homo sapiens, UniProt Q14145); test: Keap1-Nrf2 binding inhibition test (fluorescence polarization); conditions: compound concentration of 100 nM; read-out: inhibition rate
T1 construct: GST fusion human Keap1 (amino acid residue: 325-624) protein; purchased Protein tech Ag0779
Outline: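 Fluorescence polarization with FITC-labelled Nrf2 peptide (FITC-Ahx-LDEETGEFL-NH2) and GST-human Keap1 (325-624) in 20 mM Tris pH 7.5, 150 mM NaCl, 0.05% Tween 20, 5 mM DTT, BSA; 30 min at room temperature, ex 482/em 530 nm. Percent inhibition at 100 nM compound, Keap1-free wells = 100%.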

NQO1 [4] = test: NQO1 expression induction test in mouse kidney (single administration); format: in vivo; conditions: Mus musculus, po, 6 h, BALB/c mouse kidney, 6 hours after administration, ratio to control group
Outline: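 Female BALB/c mice received a single oral dose of compound in 0.5% methylcellulose, with untreated mice as controls. Six hours later, left-kidney NQO1 mRNA was measured by SYBR real-time RT-PCR normalised to GAPDH. Induction was expressed as the ratio of mean treated to mean control expression.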

T1 sequence (Q14145 325-624): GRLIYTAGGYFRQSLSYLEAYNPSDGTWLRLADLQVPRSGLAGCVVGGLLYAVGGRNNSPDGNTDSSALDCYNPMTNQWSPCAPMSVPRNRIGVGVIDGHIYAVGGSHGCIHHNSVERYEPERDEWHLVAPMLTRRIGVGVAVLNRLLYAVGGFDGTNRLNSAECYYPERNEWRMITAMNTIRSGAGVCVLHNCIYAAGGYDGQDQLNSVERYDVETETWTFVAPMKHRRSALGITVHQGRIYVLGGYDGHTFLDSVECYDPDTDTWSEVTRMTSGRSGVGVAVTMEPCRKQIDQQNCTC

SMILES	inhibition at 0.1 µM [3] [%]	EC (1.5-fold NQO1 activity) (NQO1 [1]) [µM]	Human metabolic rate [2]	fold induction at 20 mg/kg (NQO1 [4])	fold induction at 30 mg/kg (NQO1 [4])	fold induction at 10 mg/kg (NQO1 [4]; Dose 10 mg/kg)
CC[C@@H]1CN(Cc2cccc(C(c3ccc4c(nnn4C)c3C)C(C)(C)C(=O)O)c2)Cc2cc3ncccc3cc2O1 (stereo partly drawn) [Example 79-(b), 3-(1,4-dimethyl-1H-benzo[d][1,2,3]triazol-5-yl)-3-(3-(((R)-2-ethyl-2,3-dihydro-[1,4]oxazepino[7,6-g]quinolin-4(5H)-yl)methyl)phenyl)-2,2-dimethylpropanoic Acid]	≥ 50	0.005 to 0.05	E (metabolic rate≥250 pmol/min/mg protein)	3 to 6		
CC[C@@H]1CN(Cc2cc(C(c3ccc4c(nnn4C)c3C)C(C)(C)C(=O)O)ccc2OC)Cc2cc3ncccc3cc2O1 (stereo partly drawn) [Example 81-(b), 3-(1,4-dimethyl-1H-benzo[d][1,2,3]triazol-5-yl)-3-(3-(((R)-2-ethyl-2,3-dihydro-[1,4]oxazepino[7,6-g]quinolin-4 (5H)-yl)methyl)-4-methoxyphenyl)-2,2-dimethylpropanoic Acid]	≥ 50	0.005 to 0.05	A (metabolic rate<100 pmol/min/mg protein)	3 to 6		
CC[C@@H]1CN(Cc2cc(C(c3ccc4c(nnn4C)c3C)C(C)(C)C(=O)O)ccc2C)Cc2ccc3c(c2O1)CCCC3 (stereo partly drawn) [Example 7-(b), 3-(1,4-dimethyl-1H-benzo[d][1,2,3]triazol-5-yl)-3-(3-(((R)-2-ethyl-2,3,8,9,10,11-hexahydronaphtho[2,1-f][1,4]oxazepin-4(5H)-yl)methyl)-4-methylphenyl)-2,2-dimethylpropanoic Acid]	≥ 50	0.005 to 0.05	B (100≤metabolic rate<150 pmol/min/mg protein)		3 to 6	
CC[C@@H]1CN(Cc2cc(C(c3ccc4c(nnn4C)c3C)C(C)(C)C(=O)O)ccc2C)Cc2cc3c(cc2O1)SCC3 (stereo partly drawn) [Example 73-(b), 3-(1,4-dimethyl-1H-benzo[d][1,2,3]triazol-5-yl)-3-(3-(((R)-2-ethyl-2,3,7,8-tetrahydrothieno[2′,3′:4,5]benzo[1,2-f][1,4]oxazepin-4(5H)-yl)methyl)-4-methylphenyl)-2,2-dimethylpropanoic Acid]	≥ 50	0.005 to 0.05	C (150≤metabolic rate<200 pmol/min/mg protein)	> 6		
CC[C@@H]1CN(Cc2cc(C(c3ccc4c(nnn4C)c3C)C(C)(C)C(=O)O)ccc2C)Cc2cc3nccc(OC)c3cc2O1 (stereo partly drawn) [Example 70-(b), 3-(1,4-dimethyl-1H-benzo[d][1,2,3]triazol-5-yl)-3-(3-(((R)-2-ethyl-10-methoxy-2,3-dihydro-[1,4]oxazepino[7,6-g]quinolin-4(5H)-yl)methyl)-4-methylphenyl)-2,2-dimethylpropanoic Acid]	≥ 50	0.0005 to 0.005	E (metabolic rate≥250 pmol/min/mg protein)	> 6		
CC[C@@H]1CN(Cc2cc(C(c3ccc4c(nnn4C)c3C)C(C)(C)C(=O)O)ccc2C)Cc2cc3nccc(C)c3cc2O1 (stereo partly drawn) [Example 71-(b), 3-(1,4-dimethyl-1H-benzo[d][1,2,3]triazol-5-yl)-3-(3-(((R)-2-ethyl-10-methyl-2,3-dihydro-[1,4]oxazepino[7,6-g]quinolin-4 (5H)-yl)methyl)-4-methylphenyl)-2,2-dimethylpropanoic Acid]	≥ 50	0.0005 to 0.005	D (200≤metabolic rate<250 pmol/min/me protein)	> 6		
CC[C@@H]1CN(Cc2cc(C(c3ccc4c(c3)nnn4C)C(C)(C)C(=O)O)ccc2C)Cc2cc3ncccc3cc2O1 (stereo partly drawn) [Example 82-(b), 3-(3-(((R)-2-ethyl-2,3-dihydro-[1,4]oxazepino[7,6-g]quinolin-4 (5H)-yl)methyl)-4-methylphenyl)-2,2-dimethyl-3-(1-methyl-1H-benzo[d][1,2,3]triazol-5-yl) propanoic Acid]	≥ 50	0.005 to 0.05	B (100≤metabolic rate<150 pmol/min/mg protein)	> 6		
Cc1ccc(C(c2ccc3c(nnn3C)c2C)C(C)(C)C(=O)O)cc1CN1CCOc2cc3cccnc3cc2C1 (stereo not shown) [Example 63-(b), 3-(3-((2,3-dihydro-[1,4]oxazepino[7,6-g]quinolin-4 (5H)-yl)methyl)-4-methylphenyl)-3-(1,4-dimethyl-1H-benzo[d][1,2,3]triazol-5-yl)-2,2-dimethylpropanoic Acid]	≥ 50	0.005 to 0.05	C (150≤metabolic rate<200 pmol/min/mg protein)		3 to 6	

Continued, in another order:

inhibition at 0.1 µM [3] [%]	SMILES	EC (1.5-fold NQO1 activity) (NQO1 [1]) [µM]	Human metabolic rate [2]	fold induction at 20 mg/kg (NQO1 [4])	fold induction at 30 mg/kg (NQO1 [4])	fold induction at 10 mg/kg (NQO1 [4]; Dose 10 mg/kg)
≥ 50	CC[C@@H]1CN(Cc2cc(C(c3ccc4c(nnn4C)c3C)C(C)(C)C(=O)O)ccc2C)Cc2cc3ccccc3nc2O1 (stereo partly drawn) [Example 9-(b), 3-(1,4-dimethyl-1H-benzo[d][1,2,3]triazol-5-yl)-3-(3-(((R)-2-ethyl-2,3-dihydro-[1,4]oxazepino[7,6-b]quinolin-4 (5H)-yl)methyl)-4-methylphenyl)-2,2-dimethylpropanoic Acid]	0.0005 to 0.005	D (200≤metabolic rate<250 pmol/min/me protein)		3 to 6	
≥ 50	CC[C@@H]1CN(Cc2cc(C(c3ccc4c(nnn4C)c3C)C(C)(C)C(=O)O)ccc2C)Cc2ccccc2O1 (single isomer, unassigned) [Example C1, reference compound]	0.005 to 0.05	C (150≤metabolic rate<200 pmol/min/mg protein)			≤ 3
≥ 50	CC[C@@H]1CN(Cc2cc(C(c3ccc4c(nnn4C)c3C)C(C)(C)C(=O)O)ccc2C)Cc2cc3ccccc3cc2O1 (stereo partly drawn) [Example 8-(b), 3-(1,4-dimethyl-1H-benzo[d][1,2,3]triazol-5-yl)-3-(3-(((R)-2-ethyl-2,3-dihydronaphtho[2,3-f][1,4]oxazepin-4(5H)-yl)methyl)-4-methylphenyl)-2,2-dimethylpropanoic Acid]	0.0005 to 0.005	A (metabolic rate<100 pmol/min/mg protein)		3 to 6	
≥ 50	CC[C@@H]1CN(Cc2cc(C(c3ccc4c(nnn4C)c3C)C(C)(C)C(=O)O)ccc2C)Cc2cc3c(Cl)cccc3cc2O1 (stereo partly drawn) [Example 68-(b), 3-(3-(((R)-7-chloro-2-ethyl-2,3-dihydronaphtho[2,3-f][1,4]oxazepin-4 (5H)-yl)methyl)-4-methylphenyl)-3-(1,4-dimethyl-1H-benzo[d][1,2,3]triazol-5-yl)-2,2-dimethylpropanoic Acid]	0.005 to 0.05	A (metabolic rate<100 pmol/min/mg protein)	3 to 6		
≥ 50	CC[C@@H]1CN(Cc2cc(C(c3ccc4c(nnn4C)c3C)C(C)(C)C(=O)O)ccc2C)Cc2cc3cccc(C)c3nc2O1 (stereo partly drawn) [Example 13-(b), 3-(1,4-dimethyl-1H-benzo[d][1,2,3]triazol-5-yl)-3-(3-(((R)-2-ethyl-10-methyl-2,3-dihydro-[1,4]oxazepino[7,6-b]quinolin-4 (5H)-yl)methyl)-4-methylphenyl)-2,2-dimethylpropanoic Acid]	0.0005 to 0.005	E (metabolic rate≥250 pmol/min/mg protein)		3 to 6	
